Results taken from article PMC12340956, “Tranylcypromine-Based LSD1 Inhibitors as Useful Agents to Reduce Viability of” (ACS Infectious Diseases, 2025).
Read-outs that look alike come from different tables or passages of the source. One block for each molecule: values may come before it.

Columns and labels:
[1] = molecular target: T1, human LSD1-CoREST complex (Homo sapiens, UniProt O60341); assay: ThermoFAD thermal stability assay; format: binding; details: for ΔTm: LSD1-CoREST thermal stability
T1 construct: made in house
Experimental: Compounds 14–22 were tested against the human LSD1-CoREST complex to determine their inhibitory activity. […] ThermoFAD assays were then performed to assess the impact of 14–22 on the thermal stability (ΔT m values, Table ) of the LSD1-CoREST complex. The most significant shifts in Tm values corresponded to the strongest binders. […] Compound 22 was not tested, considering its previous negative results.
Protein expression, thermal stability, and inhibition of human LSD1-CoREST were performed using established protocols. […] LSD1-CoREST (0.4 μM) was preincubated with the inhibitor at 25 °C for 10 min in the presence of 5% DMSO. The reaction was initiated by adding an equal volume of the substrate solution to the enzyme–inhibitor mixture, and resorufin fluorescence (excitation at 530–570 nm and emission at 580–590 nm) was detected with a Clariostar plate reader.

[2] = molecular target: T1, human LSD1-CoREST complex; assay: HRP-coupled LSD1 inhibition assay; format: biochemical; details: 10 min preincubation; for IC50: read-out: IC50 (hLSD1 direct inhibition)
Experimental: Protein expression, thermal stability, and inhibition of human LSD1-CoREST were performed using established protocols. […] The reaction was initiated by adding an equal volume of the substrate solution to the enzyme–inhibitor mixture, and resorufin fluorescence (excitation at 530–570 nm and emission at 580–590 nm) was detected with a Clariostar plate reader.

adult worms [3] = assay: Pairing and egg laying of adult worms; format: cell-based, Schistosoma mansoni; details: for eggs' number: 20 μM
Experimental: Selected compounds 2, 15, 18, and 19 were tested on adult worms to evaluate their effects on pairing and egg laying.

NTS = assay: Speed-of-action assay in NTS; format: cell-based, Schistosoma mansoni
Excerpt: (§1) To better characterize a selection of our LSD1i in vitro, we assessed the onset of their action, defined as the time required for an observable antischistosomal effect. […] For detailed percentages of activity at each time point, refer to the Supporting Information (Tables S2 and S3 in Supporting Information).

[4] = tested on: S. mansoni juvenile forms; assay: Speed-of-action assay in juvenile forms; format: cell-based, Schistosoma mansoni
Excerpt: as §1

[5] = MTT cytotoxicity in RPE cells; format: cell-based; details: human, retinal pigment epithelial (RPE) cells; for viability at 72 h, 5 µM / viability at 72 h, 10 µM / viability at 72 h, 25 µM / viability at 72 h, 50 µM: read-out: percentage of viability, 72 h; for IC50 at 72 h: read-out: IC50 (cell viability)
Experimental: (§2) The MTT method was used to evaluate cell viability after 72 h of treatment.
(§3) Human commercial lung diploid fibroblasts (MRC-5), and diploid retinal epithelium cells (RPE) were obtained from the American Type Culture Collection (ATCC) and kindly provided by Dr Francesca Degrassi (CNR IBPM) and maintained in minimal essential medium or DMEM-F12 medium supplemented with fetal calf serum, antibiotics, and nonessential amino acids. Cells were grown at 37 °C, in a humidified atmosphere, with 5% CO2. For experiments, cells were seeded in 200 μL of complete in each well of a 96-well microtiter plate. After 24 h, compounds were added at 5, 10, 25, and 50 μM for 72 h in sextuplicate. MTT was added (0.5 mg/mL), incubated for 4 h at 37 °C, and dissolved in 200 μL of isopropyl alcohol. Absorbance was measured at 570 nm (ELISA reader, DASIT), and cell viability was calculated as viability=(ODoftreatedcells/ODofcontrolcells)×100

[6] = MTT cytotoxicity in MRC-5 cells; format: cell-based; details: human, MRC-5 lung diploid fibroblast cells; for viability at 72 h, 5 µM / viability at 72 h, 10 µM / viability at 72 h, 25 µM / viability at 72 h, 50 µM: read-out: percentage of viability, 72 h; for IC50 at 72 h: read-out: IC50 (cell viability)
Experimental: as §2, §3

[7] = tested on: newly transformed schistosomula (NTS); assay: NTS viability phenotypic screening, 72 h; details: for IC50: Schistosoma mansoni, read-out: IC50 (NTS viability)
adult worms [8] = assay: Adult worm viability phenotypic assay, 72 h; details: Schistosoma mansoni, read-out: IC50 (adult worm viability)
[9] = molecular target: T1, human LSD1-CoREST complex; assay: Spectrophotometric analysis of flavin cofactor bleaching; format: biochemical
[10] = molecular target: T1, human LSD1-CoREST complex; set-up: method as in footnote c (number not given); details: positive control; ref footnote c (number not given); read-out: IC50 (hLSD1 direct inhibition); cited from earlier work
juvenile and adult worms = tested on: juvenile and adult worms; set-up: method as in earlier work of the authors (number not given); details: ref earlier work of the authors (number not given); cited from earlier work

Structure (SMILES): Cl.NC1CC1c1ccc(NC(=O)c2ccc(C#CC3CC3)cc2)cc1 (centres unmarked) [Compound 19, N-(4-(2-Aminocyclopropyl)phenyl)-4-(cyclopropylethynyl)benzamide Hydrochloride]
- ΔTm [1]: +8 °C
- IC50 [2]: 0.02 ± 0.001 µM
- eggs' number (adult worms [3]; 4 h): 0
- eggs' number (adult worms [3]; 8 h): 0
- eggs' number (adult worms [3]; 24 h): 0
- eggs' number (adult worms [3]; 48 h): 0
- eggs' number (adult worms [3]; 72 h): 5
- effect on worm pairing (adult worms [3]; adult worms): no impact on worm pairing
- Percentage of effect (NTS; NTS, 4 h, 10 μM): 30.77%
- Percentage of effect (NTS; NTS, 4 h, 20 μM): 38.46%
- Percentage of effect (NTS; NTS, 24 h, 10 μM): 48.21%
- Percentage of effect (NTS; NTS, 24 h, 20 μM): 78.57%
- Percentage of effect (NTS; NTS, 48 h, 10 μM): 87.76%
- Percentage of effect (NTS; NTS, 48 h, 20 μM): 100%
- Percentage of effect (NTS; NTS, 72 h, 10 μM): 93.88%
- Percentage of effect (NTS; NTS, 72 h, 20 μM): 100%
- IC50 (NTS; Schistosoma mansoni, 4 h; read-out: IC50 (speed of action, NTS)): > 20 µM
- IC50 (NTS; Schistosoma mansoni, 24 h; read-out: IC50 (speed of action, NTS)): 10.4 µM
- IC50 (NTS; Schistosoma mansoni, 48 h; read-out: IC50 (speed of action, NTS)): 8.3 µM
- IC50 (NTS; Schistosoma mansoni, 72 h; read-out: IC50 (speed of action, NTS)): 7.5 µM
- IC50 ([4]; Schistosoma mansoni, 4 h; read-out: IC50 (speed of action, juvenile forms)): > 20 µM
- IC50 ([4]; Schistosoma mansoni, 24 h; read-out: IC50 (speed of action, juvenile forms)): > 20 µM
- IC50 ([4]; Schistosoma mansoni, 48 h; read-out: IC50 (speed of action, juvenile forms)): > 20 µM
- IC50 ([4]; Schistosoma mansoni, 72 h; read-out: IC50 (speed of action, juvenile forms)): 2.7 µM
- Percentage of effect ([4]; juvenile forms, 4 h, 1 μM): 20%
- Percentage of effect ([4]; juvenile forms, 4 h, 10 μM): 20%
- Percentage of effect ([4]; juvenile forms, 4 h, 20 μM): 41.82%
- Percentage of effect ([4]; juvenile forms, 24 h, 1 μM): 27.59%
- Percentage of effect ([4]; juvenile forms, 24 h, 10 μM): 34.48%
- Percentage of effect ([4]; juvenile forms, 24 h, 20 μM): 40.38%
- Percentage of effect ([4]; juvenile forms, 48 h, 1 μM): 36.54%
- Percentage of effect ([4]; juvenile forms, 48 h, 10 μM): 46.15%
- Percentage of effect ([4]; juvenile forms, 48 h, 20 μM): 47.92%
- Percentage of effect ([4]; juvenile forms, 72 h, 1 μM): 43.03%
- Percentage of effect ([4]; juvenile forms, 72 h, 10 μM): 46.73%
- Percentage of effect ([4]; juvenile forms, 72 h, 20 μM): 81.25%
- viability at 72 h, 5 µM [5]: 92 ± 26%
- viability at 72 h, 10 µM [5]: 89 ± 35%
- viability at 72 h, 25 µM [5]: 98 ± 21%
- viability at 72 h, 50 µM [5]: 103 ± 20%
- IC50 at 72 h [5]: > 100 µM
- viability at 72 h, 5 µM [6]: 98 ± 20%
- viability at 72 h, 10 µM [6]: 88 ± 18%
- viability at 72 h, 25 µM [6]: 85 ± 8%
- viability at 72 h, 50 µM [6]: 85 ± 35%
- IC50 at 72 h [6]: > 100 µM
- Percentage of reduction of NTS viability, 72 h ([7]; 1 μM): 22.6 ± 1.9%
- Percentage of reduction of NTS viability, 72 h ([7]; 10 μM): 100 ± 0.0%
- Percentage of reduction of NTS viability, 72 h ([7]; 20 μM): 100 ± 0.0%
- IC50 [7]: 1.27 µM
- IC50 (adult worms [8]): > 10 µM

- thermal shift compared to the control [1]: no thermal shift
- ΔTm [1]: 0 °C
- IC50 (hLSD1 direct inhibition) [2]: inactive
- IC50 [2]: > 100 µM
- bleaching of the flavin cofactor [9]: no bleaching
Structure (SMILES): CC#Cc1ccc(C(=O)Nc2cccc(C3CC3N)c2)cc1.Cl (centres unmarked) [Compound 21, N-(3-(2-Aminocyclopropyl)phenyl)-4-(prop-1-yn-1-yl)benzamide Hydrochloride]

- thermal shift compared to the control [1]: no thermal shift
- ΔTm [1]: 0 °C
- bleaching of the flavin cofactor [9]: no bleaching
Structure (SMILES): Cl.NC1CC1c1cccc(NC(=O)c2ccc(C#CC3CC3)cc2)c1 (centres unmarked) [Compound 22, N-(3-(2-Aminocyclopropyl)phenyl)-4-(cyclopropylethynyl)benzamide Hydrochloride]

Structure (SMILES): C#Cc1ccc(C(=O)Nc2ccc(C3CC3N)cc2)cc1 (centres unmarked) [MC3935, reference compound]
- Percentage of effect (NTS; NTS, 4 h, 10 μM): 21.15%
- Percentage of effect (NTS; NTS, 4 h, 20 μM): 23.08%
- Percentage of effect (NTS; NTS, 24 h, 10 μM): 41.07%
- Percentage of effect (NTS; NTS, 24 h, 20 μM): 41.07%
- Percentage of effect (NTS; NTS, 48 h, 10 μM): 34.69%
- Percentage of effect (NTS; NTS, 48 h, 20 μM): 57.14%
- Percentage of effect (NTS; NTS, 72 h, 10 μM): 51.02%
- Percentage of effect (NTS; NTS, 72 h, 20 μM): 59.18%
- IC50 (NTS; Schistosoma mansoni, 4 h, read-out: IC50 (speed of action, NTS)): > 20 µM
- IC50 (NTS; Schistosoma mansoni, 24 h, read-out: IC50 (speed of action, NTS)): > 20 µM
- IC50 (NTS; Schistosoma mansoni, 48 h, read-out: IC50 (speed of action, NTS)): 17.6 µM
- IC50 (NTS; Schistosoma mansoni, 72 h, read-out: IC50 (speed of action, NTS)): 11.5 µM
- IC50 ([4]; Schistosoma mansoni, 4 h, read-out: IC50 (speed of action, juvenile forms)): > 20 µM
- IC50 ([4]; Schistosoma mansoni, 24 h, read-out: IC50 (speed of action, juvenile forms)): > 20 µM
- IC50 ([4]; Schistosoma mansoni, 48 h, read-out: IC50 (speed of action, juvenile forms)): > 20 µM
- IC50 ([4]; Schistosoma mansoni, 72 h, read-out: IC50 (speed of action, juvenile forms)): 17.7 µM
- Percentage of effect ([4]; juvenile forms, 4 h, 1 μM): 16.67%
- Percentage of effect ([4]; juvenile forms, 4 h, 10 μM): 23.33%
- Percentage of effect ([4]; juvenile forms, 4 h, 20 μM): 41.82%
- Percentage of effect ([4]; juvenile forms, 24 h, 1 μM): 17.24%
- Percentage of effect ([4]; juvenile forms, 24 h, 10 μM): 31.03%
- Percentage of effect ([4]; juvenile forms, 24 h, 20 μM): 38.46%
- Percentage of effect ([4]; juvenile forms, 48 h, 1 μM): 26.92%
- Percentage of effect ([4]; juvenile forms, 48 h, 10 μM): 32.69%
- Percentage of effect ([4]; juvenile forms, 48 h, 20 μM): 39.58%
- Percentage of effect ([4]; juvenile forms, 72 h, 1 μM): 31.48%
- Percentage of effect ([4]; juvenile forms, 72 h, 10 μM): 39%
- Percentage of effect ([4]; juvenile forms, 72 h, 20 μM): 56.25%
- viability at 72 h, 5 µM [5]: 84 ± 18%
- viability at 72 h, 10 µM [5]: 87 ± 24%
- viability at 72 h, 25 µM [5]: 82 ± 11%
- viability at 72 h, 50 µM [5]: 100 ± 33%
- IC50 at 72 h [5]: > 100 µM
- viability at 72 h, 5 µM [6]: 94 ± 10%
- viability at 72 h, 10 µM [6]: 97 ± 9%
- viability at 72 h, 25 µM [6]: 93 ± 17%
- viability at 72 h, 50 µM [6]: 94 ± 10%
- IC50 at 72 h [6]: > 100 µM
- IC50 [10]: 0.52 µM
- time to parasite death (juvenile and adult worms): ≤ 96 h
- Percentage of reduction of NTS viability, 72 h ([7]; 1 μM): 33.3 ± 0.0%
- Percentage of reduction of NTS viability, 72 h ([7]; 10 μM): 45.5 ± 4.3%
- Percentage of reduction of NTS viability, 72 h ([7]; 20 μM): 100 ± 0.0%
- IC50 [7]: 1.95 µM
- IC50 (adult worms [8]): > 10 µM
